Test results reported in ChEMBL document CHEMBL3585308, “Discovery and Modification of in Vivo Active Nrf2 Activators with 1,2,4-Oxadiazole Core: Hits Identification and Structure-Activity Relationship Study” (J Med Chem, 2015).
Values after ≈ are worked out from the molar mass of the structure shown. Each block holds one compound with its values, some of them ahead of it. Active and inactive are the calls of the source. The rule behind the calls is not given here.

Columns and labels:
Mus musculus [1] = assay: Antiinflammatory activity in C57BL/6 mouse assessed as reduction of LPS-induced IL-6 level in serum at 10 mg/kg/day pretreated for 48 hrs followed by LPS challenge measured after 5 hrs by ELISA; type: functional, organism-based
Mus musculus [2] = assay: Toxicity in C57BL/6 mouse assessed as effect on body weight at 10 mg/kg/day measured after 3 days; type: organism-based; settings: in vivo, 72 h
Mus musculus [3] = assay: Antiinflammatory activity in C57BL/6 mouse assessed as reduction of LPS-induced TNF-alpha level in serum at 10 mg/kg/day pretreated for 48 hrs followed by LPS challenge measured after 5 hrs by ELISA; type: functional, organism-based
Mus musculus [4] = assay: Antiinflammatory activity in C57BL/6 mouse assessed as reduction of LPS-induced IL-12 level in serum at 10 mg/kg/day pretreated for 48 hrs followed by LPS challenge measured after 5 hrs by ELISA; type: functional, organism-based
Mus musculus [5] = assay: Antiinflammatory activity in C57BL/6 mouse assessed as prevention of LPS-induced morphological changes in lung at 10 mg/kg/day pretreated for 48 hrs followed by LPS challenge measured after 5 hrs; type: functional, organism-based
Mus musculus [6] = assay: Antiinflammatory activity in C57BL/6 mouse assessed as suppression of LPS-induced IL-6 expression in lung at 10 mg/kg/day pretreated for 48 hrs followed by LPS challenge measured after 5 hrs by immunohistochemical analysis; type: functional, organism-based
Mus musculus [7] = assay: Antiinflammatory activity in C57BL/6 mouse assessed as reduction of LPS-induced IL-17 level in serum at 10 mg/kg/day pretreated for 48 hrs followed by LPS challenge measured after 5 hrs by ELISA; type: functional, organism-based
Mus musculus [8] = assay: In vivo activation of Nrf2 in LPS-stimulated C57BL/6 mouse lung at 10 mg/kg/day pretreated for 48 hrs followed by LPS challenge measured after 5 hrs by DAPI staining-based laser scanning confocal microscopic analysis; type: functional, organism-based
Mus musculus [9] = assay: Antiinflammatory activity in C57BL/6 mouse assessed as reduction of LPS-induced IFN-gamma level in serum at 10 mg/kg/day pretreated for 48 hrs followed by LPS challenge measured after 5 hrs by ELISA; type: functional, organism-based
[10] = target: T1, Nuclear factor erythroid 2-related factor 2 (Homo sapiens) (UniProt Q16236); assay: Induction of Nrf2 translocation from cytoplasm to nucleus in human HCT116 cells after 12 hrs by DyLight 488 and DAPI staining-based laser scanning confocal microscopic analysis; type: cell-based; settings: HCT-116
T1 sequence (whole entry): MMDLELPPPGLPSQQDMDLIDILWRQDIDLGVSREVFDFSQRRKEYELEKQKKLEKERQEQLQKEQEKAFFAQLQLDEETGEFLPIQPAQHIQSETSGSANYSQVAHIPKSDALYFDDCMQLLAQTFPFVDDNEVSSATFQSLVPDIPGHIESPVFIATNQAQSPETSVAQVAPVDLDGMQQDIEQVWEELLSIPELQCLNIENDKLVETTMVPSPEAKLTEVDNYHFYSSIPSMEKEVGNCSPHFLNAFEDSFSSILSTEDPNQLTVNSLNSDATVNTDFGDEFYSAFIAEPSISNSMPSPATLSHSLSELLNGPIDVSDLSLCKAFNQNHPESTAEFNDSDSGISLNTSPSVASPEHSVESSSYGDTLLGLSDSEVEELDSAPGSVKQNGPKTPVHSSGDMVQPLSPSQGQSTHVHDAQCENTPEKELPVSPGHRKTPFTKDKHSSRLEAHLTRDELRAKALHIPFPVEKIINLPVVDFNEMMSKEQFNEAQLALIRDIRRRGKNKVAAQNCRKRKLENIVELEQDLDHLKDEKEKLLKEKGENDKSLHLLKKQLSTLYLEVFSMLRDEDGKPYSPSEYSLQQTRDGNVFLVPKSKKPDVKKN

Mus musculus [11] = assay: Antiinflammatory activity in ip dosed C57BL/6 mouse assessed as reduction of LPS-induced IL-17 level in serum pretreated for 48 hrs followed by LPS challenge measured after 5 hrs by ELISA relative to LPS-treated control; type: functional, organism-based
Mus musculus [12] = assay: Antiinflammatory activity in ip dosed C57BL/6 mouse assessed as reduction of LPS-induced TNF-alpha level in serum pretreated for 48 hrs followed by LPS challenge measured after 5 hrs by ELISA relative to LPS-treated control; type: functional, organism-based
Mus musculus [13] = assay: Antiinflammatory activity in ip dosed C57BL/6 mouse assessed as reduction of LPS-induced IL-12 level in serum pretreated for 48 hrs followed by LPS challenge measured after 5 hrs by ELISA relative to LPS-treated control; type: functional, organism-based
[14] = target: T1, Nuclear factor erythroid 2-related factor 2 (Homo sapiens); assay: Activation of Nrf2 in human HCT116 cells measured at 4 hrs by qRT-PCR analysis; type: cell-based; settings: HCT-116
[15] = Dissociation constant, pKa of the compound by potentiometric titration method; type: physicochemical
[16] = target: T1, Nuclear factor erythroid 2-related factor 2 (Homo sapiens); assay: Induction of phosphorylated Nrf2 at S40 translocation from cytoplasm to nucleus in human HCT116 cells at 20 uM after 4 hrs by Western blot analysis; type: cell-based; settings: HCT-116
[17] = target: T1, Nuclear factor erythroid 2-related factor 2 (Homo sapiens); assay: Activation of Nrf2 in human HCT116 cells assessed as upregulation of NQO1 gene expression at 20 uM after 8 hrs by qRT-PCR analysis in presence of siRNA relative to siRNA nontreated control; type: cell-based; settings: HCT-116
[18] = target: T1, Nuclear factor erythroid 2-related factor 2 (Homo sapiens); assay: Activation of Nrf2 in human HCT116 cells assessed as upregulation of GCS expression at 10 uM after 1 hr by Western blot analysis; type: cell-based; settings: HCT-116
[19] = Lipophilicity, log D of the compound at pH 7.4 by potentiometric titration method; type: physicochemical; settings: buffer
Mus musculus [20] = assay: Antiinflammatory activity in ip dosed C57BL/6 mouse assessed as reduction of LPS-induced IFN-gamma level in serum pretreated for 48 hrs followed by LPS challenge measured after 5 hrs by ELISA relative to LPS-treated control; type: functional, organism-based
[21] = target: T1, Nuclear factor erythroid 2-related factor 2 (Homo sapiens); assay: Activation of Nrf2 in human HCT116 cells assessed as upregulation of NQO1 expression after 8 hrs by Western blot analysis; type: cell-based; settings: HCT-116
[22] = target: T1, Nuclear factor erythroid 2-related factor 2 (Homo sapiens); assay: Induction of Nrf2 translocation from cytoplasm to nucleus in human HCT116 cells at 20 uM after 4 hrs by Western blot analysis; type: cell-based; settings: HCT-116
[23] = target: T1, Nuclear factor erythroid 2-related factor 2 (Homo sapiens); assay: Activation of Nrf2 in human HCT116 cells at 20 uM after 8 hrs by qRT-PCR analysis in presence of siRNA relative to siRNA nontreated control; type: cell-based; settings: HCT-116
[24] = Permeability of the compound at pH 7.4 by PAMPA; type: physicochemical; settings: read-out: permeability
[25] = target: T1, Nuclear factor erythroid 2-related factor 2 (Homo sapiens); assay: Activation of Nrf2 in human HCT116 cells assessed as upregulation of GCLM gene expression measured at 4 hrs by qRT-PCR analysis; type: cell-based; settings: HCT-116
[26] = target: T1, Nuclear factor erythroid 2-related factor 2 (Homo sapiens); assay: Activation of Nrf2 in human HepG2-ARE-C8 cells assessed as upregulation of ARE level after 12 hrs by luciferase reporter gene assay; type: cell-based
Mus musculus [27] = assay: In vivo activation of Nrf2 in LPS-stimulated ip dosed C57BL/6 mouse lung pretreated for 48 hrs followed by LPS challenge measured after 5 hrs by Western blot analysis; type: functional, organism-based
[28] = Intrinsic aqueous solubility of the compound by potentiometric titration method; type: physicochemical; settings: read-out: Intrinsic_solubility
Mus musculus [29] = assay: In vivo activation of Nrf2 in LPS-stimulated C57BL/6 mouse lung at 10 to 80 mg/kg/day, ip pretreated for 48 hrs followed by LPS challenge measured after 5 hrs by DAPI staining-based laser scanning confocal microscopic analysis; type: functional, organism-based
HCT-116 = assay: Cytotoxicity against human HCT116 cells assessed as reduction of cell proliferation at 80 uM after 24 hrs by MTT assay; type: cell-based; settings: hct-116, 24 h
Mus musculus [30] = assay: Antiinflammatory activity in ip dosed C57BL/6 mouse assessed as inhibition of LPS-induced IL-6 expression in lung pretreated for 48 hrs followed by LPS challenge measured after 5 hrs by immunohistochemical analysis; type: functional, organism-based
[31] = target: T1, Nuclear factor erythroid 2-related factor 2 (Homo sapiens); assay: Activation of Nrf2 in human HCT116 cells assessed as upregulation of HO-1 gene expression at 20 uM after 8 hrs by qRT-PCR analysis in presence of siRNA relative to siRNA nontreated control; type: cell-based; settings: HCT-116
[32] = target: T1, Nuclear factor erythroid 2-related factor 2 (Homo sapiens); assay: Activation of Nrf2 in human HCT116 cells assessed as upregulation of HO-1 expression after 8 hrs by Western blot analysis; type: cell-based; settings: HCT-116
[33] = target: T1, Nuclear factor erythroid 2-related factor 2 (Homo sapiens); assay: Activation of Nrf2 in human HCT116 cells assessed as upregulation of HO-1 gene expression measured at 4 hrs by qRT-PCR analysis; type: cell-based; settings: HCT-116
[34] = target: T1, Nuclear factor erythroid 2-related factor 2 (Homo sapiens); assay: Activation of Nrf2 in human HCT116 cells assessed as upregulation of NQO1 gene expression measured at 4 hrs by qRT-PCR analysis; type: cell-based; settings: HCT-116
Mus musculus [35] = assay: Antiinflammatory activity in ip dosed C57BL/6 mouse assessed as reduction of LPS-induced IL-6 level in serum pretreated for 48 hrs followed by LPS challenge measured after 5 hrs by ELISA relative to LPS-treated control; type: functional, organism-based
Mus musculus [36] = assay: Toxicity in C57BL/6 mouse assessed as effect on body weight at 10 to 80 mg/kg/day, ip measured after 3 days; type: organism-based; settings: in vivo, 72 h
[37] = target: T1, Nuclear factor erythroid 2-related factor 2 (Homo sapiens); assay: Activation of Nrf2 in human HCT116 cells assessed as upregulation of GCLM gene expression at 20 uM after 8 hrs by qRT-PCR analysis in presence of siRNA relative to siRNA nontreated control; type: cell-based; settings: HCT-116
Mus musculus [38] = assay: Antiinflammatory activity in C57BL/6 mouse assessed as prevention of LPS-induced morphological changes in lung at 10 to 80 mg/kg/day, ip pretreated for 48 hrs followed by LPS challenge measured after 5 hrs; type: functional, organism-based
[39] = target: T1, Nuclear factor erythroid 2-related factor 2 (Homo sapiens); assay: Induction of Nrf2 phosphorylation at S40 in cytoplasm of human HCT116 cells at 20 uM after 4 hrs by Western blot analysis; type: cell-based; settings: HCT-116

Compound: C[C@@H]1C[C@H]2[C@@H]3CCC4=CC(=O)C=C[C@]4(C)[C@@]3(F)[C@@H](O)C[C@]2(C)[C@@]1(O)C(=O)CO [DEXAMETHASONE]
Activity (Mus musculus [1]): Active
Activity (Mus musculus [2]): Non-toxic
Activity (Mus musculus [3]): Active
Activity (Mus musculus [4]): Active
Activity (Mus musculus [5]): Active
Activity (Mus musculus [6]): Active
Activity (Mus musculus [7]): Active
Activity (Mus musculus [8]): Active
Activity (Mus musculus [9]): Active

Activity [10]: Dose-dependent effect
Activity [14]: Dose-dependent effect
pKa [15]: 3.57
Activity [16]: Active
Activity [17]: Active
Activity [18]: Active
logD [19]: 3.37
Activity [21]: Dose-dependent effect
Activity [22]: Active
Activity [23]: Active
Papp [24]: 19.6 ×10⁻⁶ cm/s
Activity [25]: Dose-dependent effect
Activity [26]: Dose-dependent effect
solubility [28]: 66.9 µM (≈ 18.7 µg/mL)
Activity [31]: Active
Activity [32]: Dose-dependent effect
Activity [33]: Dose-dependent effect
Activity [34]: Dose-dependent effect
Activity [37]: Active
Activity [39]: Active
Compound: Fc1ccc(-c2nc(-c3ccc4nc[nH]c4c3)no2)cc1
Activity (Mus musculus [11]): Dose-dependent effect
Activity (Mus musculus [12]): Dose-dependent effect
Activity (Mus musculus [13]): Dose-dependent effect
Activity (Mus musculus [20]): Dose-dependent effect
Activity (Mus musculus [27]): Dose-dependent effect
Activity (Mus musculus [29]): Active
Activity (HCT-116): Non-toxic
inhibition (Mus musculus [30]): Dose-dependent effect
Activity (Mus musculus [35]): Dose-dependent effect
Activity (Mus musculus [36]): Non-toxic
Activity (Mus musculus [38]): Active
